Measured values from US12247022B2, “Combinations for treatment of NASH/NAFLD and related diseases” (Pfizer Inc., priority 2018, dated 2025).

Key:
Format in all cases: in vivo, rat
SREBP-1 = test: Nuclear SREBP-1 localization in liver (Western blot, normalized to Histone 2B), Western diet fed rats; conditions: high dose (Compound A 10 mg/kg QD, Compound D 30 mg/kg BID); pooled liver samples per group
Protocol: A randomized, vehicle-controlled, 8-parallel arm study was conducted in male Sprague-Dawley rats (Charles River (Boston, MA)) to obtain circulating and hepatic TG levels. Standard laboratory conditions were used to house 96 rats (˜200 g); they were double housed and kept under 12:12-hour reverse light-dark schedule (lights off at 8:00 AM). Rats were randomized into chow or Western diet groups and dose groups upon arrival and were given a 14-day lead-in period on either standard rat chow or Western diet prior to the start of the study. Standard Laboratory Rodent chow diet, 5053, was from LabDiet (PMI, St Louis, Missouri). Western Diet, D12079Bi, was from Research Diets (New Brunswick, New Jersey). […]
Nuclear and Membrane fractions were prepared by ultracentrifugation using standard methods from a portion of the pulverized liver samples, that were pooled per treatment group. Samples from the nuclear extract and the membrane fractions were analyzed by Western blotting for SREBP1. […] Nuclear SREBP1 levels were quantified using relative units and normalized to Histone 2B to control for sample loss during the nuclear fractionation and gel loading.

SCD1 = test: Hepatic lipogenic gene expression (qPCR), Western diet fed rats: SCD1; conditions: Actb housekeeping gene, Day 28 liver
Protocol: (§1) A randomized, vehicle-controlled, 8-parallel arm study was conducted in male Sprague-Dawley rats (Charles River (Boston, MA)) to obtain circulating and hepatic TG levels. Standard laboratory conditions were used to house 96 rats (˜200 g); they were double housed and kept under 12:12-hour reverse light-dark schedule (lights off at 8:00 AM). Rats were randomized into chow or Western diet groups and dose groups upon arrival and were given a 14-day lead-in period on either standard rat chow or Western diet prior to the start of the study. Standard Laboratory Rodent chow diet, 5053, was from LabDiet (PMI, St Louis, Missouri). Western Diet, D12079Bi, was from Research Diets (New Brunswick, New Jersey).
Starting on Day 1 of the study, rats were dosed orally (10 mL/kg) with either vehicle control (0.5% MC (wt/volume %) in dionized water), low or high doses of Compound A (1 mg/kg or 10 mg/kg QD, respectively), low or high doses of Compound D (5 mg/kg or 30 mg/kg BID respectively), or co-administration of low doses (Compound A at 1 mg/kg QD and Compound D at 5 mg/kg BID), or co-administration of high doses (Compound A at 10 mg/kg QD and Compound D at 30 mg/kg BID) […]
Another portion of the pulverized liver was processed and analyzed for lipogenic gene expression. Rat taqman probes against ACC1, FASN, SCD1, PCSK9 and SREBP-1c were all assessed using Actb as housekeeping gene on qPCR.

Collagen = test: Hepatic Picrosirius red staining (collagen), CDAHFD fed rats; conditions: twice daily for 6 weeks; Compound A 5 mg/kg, Compound D 30 mg/kg, or co-administration; 12 weeks on CDAHFD
Protocol: (§2) A randomized, vehicle-controlled, 5-parallel arm study was conducted in male Wistar-Han rats (Charles River (Boston, MA)) fed a choline-deficient and high fat diet (CDAHFD) (Research diets; A16092003) to identify differences in improvements in markers of hepatic inflammation and fibrosis when administering either Compound A or Compound D alone as monotherapy or in combination. Standard laboratory conditions were used to house 60 rats (˜200 g); they were double housed and kept under 12:12-hour reverse light-dark schedule (lights off at 8:00 AM). Rats were fed choline deficient and high fat diet (CDAHFD) beginning 6-weeks prior to initiation of the study. Rats, randomized into 4 dosing groups (n=12/group), received twice daily administration of vehicle, Compound A (5 mg/kg) monotherapy, Compound D (30 mg/kg) monotherapy, or co-administration Compound A (5 mg/kg) and Compound D (30 mg/kg) for a period of 6-weeks. […] Histology was assessed following 6-weeks of drug administration which corresponded to 12 weeks on the CDAHFD. […]
(§3) Following the 12-weeks on CDAHFD, the animals were sacrificed by CO2 asphyxiation. […] A portion of the pulverized liver sample from each animal was processed and analyzed for gene expression markers of fibrogenesis. Rat taqman probes against […]SMA and COL1A1 were all assessed using Actb as housekeeping gene on qPCR. […]

[1] = test system: Western diet fed Sprague Dawley rats; test: Fed plasma triglyceride (TG), Western diet fed rats, oral dosing; conditions: 2 hours post dose; for reduction of plasma TG in the fed state, relative to vehicle-administered Western diet fed rats: oral; for increase in plasma TG in the fed state, relative to vehicle-administered Western diet fed rats: oral monotherapy
Protocol: as §1
For these studies, vehicle was prepared to make a 0.5% (wt/volume) of methyl cellulose (MC, Sigma Aldrich; 274429) in deionized water. The stock solutions with either Compound A (prepared from the tris salt) or Compound D were prepared with the respective compound to provide a concentration such that 10 ml of the solution would deliver the desired mg/kg dosage amount, where the average weight of the rats used was about 200 g.
Starting on Day 1 of the study, rats were dosed orally (10 mL/kg) with either vehicle control (0.5% MC (wt/volume %) in dionized water), low or high doses of Compound A (1 mg/kg or 10 mg/kg QD, respectively), low or high doses of Compound D (5 mg/kg or 30 mg/kg BID respectively), or co-administration of low doses (Compound A at 1 mg/kg QD and Compound D at 5 mg/kg BID), or co-administration of high doses (Compound A at 10 mg/kg QD and Compound D at 30 mg/kg BID)
Fed plasma analytes: Blood for determining fed plasma TG concentrations was collected 2 hours post dose (2 hours into the dark cycle) via lateral tail vein, transferred to BD Microtainer tubes coated with dipotassium ethylenediaminetetraacetic acid (K2EDTA) (PN365974), and centrifuged at 4° C. The resulting plasma samples were then analyzed on a Siemens Chemistry XPT clinical analyzer (Malven, PA) using Siemens triglycerides_2 assay reagents (ref 10335892).

[2] = test system: alpha smooth muscle actin (αSMA); test: Hepatic αSMA immunohistochemistry, CDAHFD fed rats; conditions: twice daily for 6 weeks; Compound A 5 mg/kg, Compound D 30 mg/kg, or co-administration; 12 weeks on CDAHFD
Protocol: as §2, §3

CCOc1cccnc1Oc1cncc(-c2ncc(C(=O)N[C@H]3CCOC3)cn2)c1 [Compound D, (S)-2-(5-((3-ethoxypyridin-2-yl)oxy)pyridin-3-yl)-N-(tetrahydrofuran-3-yl)pyrimidine-5-carboxamide]
nuclear localization of SREBP-1, relative to vehicle treated Western diet fed rats (SREBP-1): reduced SREBP-1 nuclear localization
hepatic SCD1 gene expression relative to Western Diet fed and vehicle treated animals (SCD1): decreased expression
reduction of Picosrius red (PSR) staining (Collagen): 20%
reduction of plasma TG in the fed state, relative to vehicle-administered Western diet fed rats ([1]; high dose (Compound D 30 mg/kg BID; co-administration: Compound A 10 mg/kg QD and Compound D 30 mg/kg BID)): 63%
reduction of plasma TG in the fed state, relative to vehicle-administered Western diet fed rats ([1]; low dose (Compound D 5 mg/kg BID; co-administration: Compound A 1 mg/kg QD and Compound D 5 mg/kg BID)): 55%
reduction of liver αSMA staining [2]: 23%

COc1cc(C(=O)N2CCC3(CC2)CC(=O)c2c(cnn2C(C)C)C3)cc(-c2ccc(C(=O)O)cc2)n1 [Compound A, 4-(4-(1-isopropyl-7-oxo-1,4,6,7-tetrahydrospiro[indazole-5,4′-piperidine]-1′-carbonyl)-6-methoxypyridin-2-yl)benzoic acid]
nuclear localization of SREBP-1, relative to vehicle treated Western diet fed rats (SREBP-1): increased nuclear localization of SREBP-1
hepatic SCD1 gene expression relative to Western Diet fed and vehicle treated animals (SCD1): trended to further increase
reduction of Picosrius red (PSR) staining (Collagen): 26%
increase in plasma TG in the fed state, relative to vehicle-administered Western diet fed rats ([1]; high dose (Compound A 10 mg/kg QD)): 1.3 fold
increase in plasma TG in the fed state, relative to vehicle-administered Western diet fed rats ([1]; low dose (Compound A 1 mg/kg QD)): 1.7 fold
reduction of liver αSMA staining [2]: 41%
